Measurements taken from patent publication US20260070913A1, “7-AMINO-3,4-DIHYDROPYRIMIDOPYRIMIDIN-2-ONE DERIVATIVE HAVING INHIBITORY ACTIVITY FOR PROTEIN KINASES AND THERAPEUTIC PHARMACEUTICAL COMPOSITION COMPRISING SAME” (KOREA INSTITUTE OF SCIENCE AND TECHNOLOGY, priority 2020, published 2026).

Columns and labels:
[1] = molecular target: ACK1 (Homo sapiens, UniProt Q07912); assay: Inhibitory activity against ACK1 kinase; type: biochemical
Description: (§1) The inhibitory activities of the compounds of the present disclosure against two kinases, GCK and ACK1, were measured, and the IC50 values thereof were calculated.

[2] = tested on: Ba/F3 (N-Ras G12D); assay: Proliferation inhibitory activity, mt-NRAS (G12D) Ba/F3 cell line; type: cell-based; settings: Mus musculus, BaF3
Description: (§2) The inhibitory activities of the compounds of the present disclosure against the proliferation of the mt-NRAS (G12D) Ba/F3 and OCI-AML3 (mt-NRAS) cell lines were measured, and the […] values thereof were calculated.

[3] = tested on: OCI-AML3 (N-Ras Q61L); assay: Proliferation inhibitory activity, OCI-AML3 cell line; type: cell-based; settings: Homo sapiens, OCI-AML-3
Description: as §2
Referring to the results in Table 2, it can be seen that the compound of the present disclosure has inhibitory activity against the proliferation of the human acute myeloid leukemia cell line (OCI-AML3) having the NRAS mutant gene, and the effect thereof is remarkable. Therefore, it can be seen that the compound of the present disclosure is particularly effective as a therapeutic agent for acute myeloid leukemia (AML).

[4] = molecular target: T1, GCK (Homo sapiens, UniProt Q12851); assay: Inhibitory activity against GCK kinase; type: biochemical
T1 sequence (Q12851 1-820): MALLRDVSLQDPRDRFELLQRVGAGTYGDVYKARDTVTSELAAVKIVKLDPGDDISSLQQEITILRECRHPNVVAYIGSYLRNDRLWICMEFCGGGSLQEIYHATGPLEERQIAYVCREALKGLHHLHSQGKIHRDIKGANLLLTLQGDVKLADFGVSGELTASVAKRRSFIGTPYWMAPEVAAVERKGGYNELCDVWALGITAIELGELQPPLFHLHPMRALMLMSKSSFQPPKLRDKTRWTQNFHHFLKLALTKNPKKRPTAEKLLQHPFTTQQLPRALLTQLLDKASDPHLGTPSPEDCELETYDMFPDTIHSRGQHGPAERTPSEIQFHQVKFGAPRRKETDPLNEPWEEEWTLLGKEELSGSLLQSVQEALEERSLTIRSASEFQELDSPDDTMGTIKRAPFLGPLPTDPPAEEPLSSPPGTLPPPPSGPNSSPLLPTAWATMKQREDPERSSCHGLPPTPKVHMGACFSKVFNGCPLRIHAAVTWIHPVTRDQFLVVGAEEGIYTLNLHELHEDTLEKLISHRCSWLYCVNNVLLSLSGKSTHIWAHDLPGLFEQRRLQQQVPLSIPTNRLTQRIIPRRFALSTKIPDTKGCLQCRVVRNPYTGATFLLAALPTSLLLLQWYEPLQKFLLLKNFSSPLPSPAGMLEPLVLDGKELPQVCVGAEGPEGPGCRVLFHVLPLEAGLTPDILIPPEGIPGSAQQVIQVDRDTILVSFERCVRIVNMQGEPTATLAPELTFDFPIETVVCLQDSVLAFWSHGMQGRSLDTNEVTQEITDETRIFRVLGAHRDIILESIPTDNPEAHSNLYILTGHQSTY
Description: as §1

ACK1, sequence (Q07912 whole entry): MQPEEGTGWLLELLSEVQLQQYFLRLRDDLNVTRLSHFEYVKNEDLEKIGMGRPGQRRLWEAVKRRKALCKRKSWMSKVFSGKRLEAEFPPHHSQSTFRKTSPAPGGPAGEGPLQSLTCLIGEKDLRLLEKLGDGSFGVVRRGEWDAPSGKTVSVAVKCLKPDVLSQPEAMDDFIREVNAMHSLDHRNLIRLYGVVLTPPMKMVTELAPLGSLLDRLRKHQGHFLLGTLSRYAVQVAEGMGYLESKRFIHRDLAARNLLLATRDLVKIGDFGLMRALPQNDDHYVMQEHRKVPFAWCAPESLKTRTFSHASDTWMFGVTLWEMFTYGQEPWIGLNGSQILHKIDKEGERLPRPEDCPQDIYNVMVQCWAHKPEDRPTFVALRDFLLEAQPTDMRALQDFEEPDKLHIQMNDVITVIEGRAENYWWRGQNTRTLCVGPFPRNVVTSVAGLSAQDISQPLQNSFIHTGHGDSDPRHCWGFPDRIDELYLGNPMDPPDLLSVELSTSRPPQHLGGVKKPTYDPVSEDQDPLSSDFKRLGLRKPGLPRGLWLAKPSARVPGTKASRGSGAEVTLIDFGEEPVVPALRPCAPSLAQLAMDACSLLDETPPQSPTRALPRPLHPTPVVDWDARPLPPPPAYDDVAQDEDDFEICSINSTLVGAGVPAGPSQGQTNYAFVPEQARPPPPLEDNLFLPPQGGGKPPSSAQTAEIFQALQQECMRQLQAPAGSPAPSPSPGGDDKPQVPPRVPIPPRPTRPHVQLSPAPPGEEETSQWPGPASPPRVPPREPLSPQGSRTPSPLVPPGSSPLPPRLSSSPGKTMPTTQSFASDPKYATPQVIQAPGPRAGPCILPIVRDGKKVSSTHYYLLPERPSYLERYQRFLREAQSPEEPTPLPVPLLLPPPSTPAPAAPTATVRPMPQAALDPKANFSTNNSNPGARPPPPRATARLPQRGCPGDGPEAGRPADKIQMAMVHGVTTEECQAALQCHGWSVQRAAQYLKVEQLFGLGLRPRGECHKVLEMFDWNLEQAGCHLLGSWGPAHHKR

CCN1CCC(n2cc(Nc3ncc4c(n3)N(C)C(=O)N(c3cc(-c5ncc(-c6ccccc6OC)[nH]5)ccc3C)C4)cn2)CC1 [Compound No. 4, 7-((1-(1-ethylpiperidin-4-yl)-1H-pyrazol-4-yl)amino)-3-(5-(5-(2-methoxyphenyl)-1H-imidazol-2-yl)-2-methylphenyl)-1-methyl-3,4-dihydropyrimido[4,5-d]pyrimidin-2(1H)-one]
IC50 [1]: < 0.1 µM | GI50 [2]: < 0.5 µM | GI50 [3]: < 0.5 µM | IC50 [4]: 0.1 to 1 µM
